Key:
[1] = system: COLO205 cells (colon cancer); test: SRB cytotoxicity assay, colon cancer cells COLO205; type: cell-based
Procedure: (§1) A- Cell culture. The cells were obtained from the Egyptian Holding Company for Biological Products & Vaccines (VACSERA), Giza, Egypt, then maintained in the tissue culture unit. […] The cells were maintained as monolayer culture by serial sub‐culturing. Cell culture reagents were obtained from Lonza (Basel, Switzerland).
(§2) Sulforhodamine B(SRB) assay method was used to evaluate cytotoxicity. […] After 24 h, cells were incubated for 72 h with various concentrations of the tested compounds. Following 72 h treatments, the cells would be fixed with 10% trichloroacetic acid for 1 h at 4°C. Wells were stained for 10 minutes at room temperature with 0.4% SRBC (Sulphorhodamine B) dissolved in 1% acetic acid. After that, the plates were air-dried for 24 h. At the same time, the dye was dissolved in Tris‐HCl and left for 5 min on the shaker at 1600 rpm. Each well’s optical density (OD) was measured spectrophotometrically at 564 nm; by using an ELISA microplate reader (ChroMate‐4300, FL, USA). The IC50 values were calculated according to the equation for Boltzman sigmoidal concentration-response curve using the nonlinear regression fitting models (Graph Pad, Prism Version 9).

normal cell = test: Cytotoxicity on a normal cell (for selectivity index); type: cell-based; settings: for IC50: column head names no cell, normal cell according to b79; for SI (selectivity index): ratio IC50 on normal cell / IC50 on cancer cell line
Procedure: Sulforhodamine B(SRB) assay method was used to evaluate cytotoxicity. Exponentially growing cells were collected using 0.25% Trypsin‐EDTA seeded in 96‐well plates at 1000‐2000 cells/well in RBMI‐1640 supplemented medium. After 24 h, cells were incubated for 72 h with various concentrations of the tested compounds. Following 72 h treatments, the cells would be fixed with 10% trichloroacetic acid for 1 h at 4°C. Wells were stained for 10 minutes at room temperature with 0.4% SRBC (Sulphorhodamine B) dissolved in 1% acetic acid. After that, the plates were air-dried for 24 h. At the same time, the dye was dissolved in Tris‐HCl and left for 5 min on the shaker at 1600 rpm. Each well’s optical density (OD) was measured spectrophotometrically at 564 nm; by using an ELISA microplate reader (ChroMate‐4300, FL, USA). The IC50 values were calculated according to the equation for Boltzman sigmoidal concentration-response curve using the nonlinear regression fitting models (Graph Pad, Prism Version 9).
The compounds show good selectivity toward cancerous cells, represented by the “selectivity index.” The selectivity index was previously used to measure selective cytotoxic activity. The selectivity index (SI) can be calculated from the ratio between IC50 of the compound on a normal cell and the compound on a cancer cell line. For example, the SI of compounds 6d, 10a, 10d, and 16 are 86.98, 76.82, 74.32, and 54.13, respectively.

[2] = system: Gastric (SNU-16) Patch number (ATCC CRL-5822); test: SRB cytotoxicity assay, gastric cancer cells SNU-16; type: cell-based
Procedure: as §1, §2

[3] = Homo sapiens, COLO 205, 72 h incubation
[4] = Homo sapiens, SNU-16, 72 h incubation

Structure (SMILES) | IC50 [1, 3] [µM] | IC50 (normal cell) [µM] | IC50 [2, 4] [µM] | melting point [°C] | IC50 ([1]; 72 h incubation) [µM] | IC50 ([2]; 72 h incubation) [µM] | SI (selectivity index) (normal cell)
CCN(CC)CCNC(=O)c1c(C)[nH]c(/C=C2\C(=O)Nc3ccc(F)cc32)c1C [sunitinib, reference compound] | 11.27 ± 0.033 | 378 ± 31.8 | 8.45 ± 0.023 |  |  |  | 
CC(=O)/C(=N\Nc1ccc(Cl)cc1)N/N=C1\CCc2cc(Br)ccc21 [14b, N’-(5-bromo-2,3-dihydro-1H-inden-1-ylidene)-N’’-(4-chlorophenyl)-2-oxopropanehydrazon-hydrazide] | 10.61 ± 0.09 | > 100 | 13.8 ± 0.69 | 197 to 198 |  |  | 
Cc1nc(NN=C2CCc3cc(Br)ccc32)sc1N=Nc1ccc(Cl)cc1 [6e, 2-(2-(5-Bromo-2,3-dihydro-1H-inden-1-ylidene)hydrazineyl)-5-((4-chlorophenyl)diazenyl)-4-methylthiazole] | 7.276 ± 0.03 | > 100 | 26.19 ± 0.12 | 177 to 178 |  |  | 
N.N.[Cl][Pt][Cl] [Cisplatin, reference compound] |  | 548 ± 61.2 |  |  | 9.13 ± 0.07 | 11.27 ± 0.076 | 
CC(=O)C(=NNc1ccccc1)NN=C1CCc2cc(Br)ccc21 [14a, N’-(5-bromo-2,3-dihydro-1H-inden-1-ylidene)-2-oxo-N’’-phenylpropanehydrazonhydrazide] | 11.27 ± 0.046 | > 100 | 14.9 ± 0.3 | 190 |  |  | 
CCOC(=O)C(=NNc1ccccc1)NN=C1CCc2cc(Br)ccc21 [compound 15, Ethyl 2-(2-(5-bromo-2,3-dihydro-1H-inden-1-ylidene)hydrazineyl)-2-(2-phenyl-hydrazineylidene)acetate] | 13.63 ± 0.04 | > 100 | 16.6 ± 0.38 | 174 to 176 |  |  | 
Brc1ccc(-c2csc(NN=C3CCc4cc(Br)ccc43)n2)cc1 [10c, N-(5-Bromo-indan-1-ylidene)-N’-[4-(4-bromo-phenyl)-thiazol-2-yl]-hydrazine] | 13.81 ± 0.025 | > 100 | 26.8 ± 0.6 | 230 to 232 |  |  | 
NC(=S)NN=C1CCc2cc(Br)ccc21 [compound 3, 2-(5-Bromo-2,3-dihydro-1H-inden-1-ylidene)hydrazine-1-carbothioamide] | 14.1 ± 0.04 | > 100 | 19.01 ± 0.133 | 227 to 230 |  |  | 
Clc1ccc(-c2csc(NN=C3CCc4cc(Br)ccc43)n2)cc1 [10d, N-(5-Bromo-indan-1-ylidene)-N’-[4-(4-chloro-phenyl)-thiazol-2-yl]-hydrazine] | 12.16 ± 0.06 | 563 ± 44.2 | 7.576 ± 0.075 |  |  |  | 74.32
Brc1ccc2c(c1)CCC2=NNc1nc(-c2ccccc2)cs1 [10a, N-(5-Bromo-indan-1-ylidene)-N’-(4-phenyl-thiazol-2-yl)-hydrazine] | 6.301 ± 0.008 | 485 ± 7.89 | 20 ± 0.64 |  |  |  | 76.82
Cc1nc(N/N=C2\CCc3cc(Br)ccc32)sc1/N=N/c1ccccc1 [6a, 2-(2h4(5-Bromo-2,3-dihydro-1H-inden-1-ylidene)hydrazineyl)-4-methyl-5-(phenyldiazenyl)-thiazole] | 17.14 ± 0.12 | > 100 | 21.79 ± 0.076 | 220 to 222 |  |  | 
Cc1cccc(N=Nc2sc(NN=C3CCc4cc(Br)ccc43)nc2C)c1 [6b, 2-(2-(5-Bromo-2,3-dihydro-1H-inden-1-ylidene)hydrazineyl)-4-methyl-5-(m-tolyldiazenyl)-thiazole] | 9.813 ± 0.005 | > 100 | 12.28 ± 0.03 | 128 to 129 |  |  | 
Cc1ccc(-c2csc(NN=C3CCc4cc(Br)ccc43)n2)cc1 [10b, N-(5-Bromo-indan-1-ylidene)-N’-(4-p-tolyl-thiazol-2-yl)-hydrazine] | 12.08 ± 0.006 | > 100 | 18.3 ± 0.39 | 233 to 234 |  |  | 
NN=C1CCc2cc(Br)ccc21 [compound 4, (5-Bromo-indan-1-ylidene)-hydrazine] | 8.167 ± 0.07 | > 100 | 23.2 ± 0.204 | 120 |  |  | 
Cc1nc(NN=C2CCc3cc(Br)ccc32)sc1N=Nc1cccc(Cl)c1 [6d, 2-(2-(5-Bromo-2,3-dihydro-1H-inden-1-ylidene)hydrazineyl)-5-((3-chlorophenyl)-diazenyl)-4-methylthiazole] | 6.958 ± 0.04 | 605 ± 35.2 | 19.79 ± 0.129 |  |  |  | 86.98
Cc1ccc(N=Nc2sc(NN=C3CCc4cc(Br)ccc43)nc2C)cc1 [6c, 2-(2-(5-Bromo-2,3-dihydro-1H-inden-1-ylidene)hydrazineyl)-4-methyl-5-(p-tolyldiazenyl)thiazole] | 7.576 ± 0.07 | > 100 | 12.89 ± 0.076 | 130 to 132 |  |  | 
O=C(Nc1ccccc1)C(=NNc1ccccc1)NN=C1CCc2cc(Br)ccc21 [compound 16, 2-(2-(5-Bromo-2,3-dihydro-1H-inden-1-ylidene)hydrazineyl)-N-phenyl-2-(2-phenyl-hydrazineylidene)acetamide] | 13.04 ± 0.025 | 525 ± 36.2 | 9.699 ± 0.0726 |  |  |  | 54.13

Source: PMC9977057, “Indenyl-thiazole and indenyl-formazan derivatives: Synthesis, anticancer screening studies, molecular-docking, and pharmacokinetic/ molin-spiration properties” (PLOS ONE, 2023)
